Reference: patent publication US20250041429A1, “COMPOUND HAVING BTK PROTEIN DEGRADATION ACTIVITY, AND MEDICAL USES THEREOF” (UBIX THERAPEUTICS, INC., priority 2021, published 2025)

Biological target: T1, BTK protein (Homo sapiens, UniProt Q06187)
T1 construct: endogenous in cells; host or cells: TMD-8 cells
Experiment: Measurement of BTK protein degradation ability in TMD-8 cells (Western blotting)
Type: cell-based
Conditions: harvested after 24 hours; for BTK degradation (%) 1 nM: compound 1 nM; for BTK degradation (%) 10 nM: compound 10 nM; for BTK degradation (%) 100 nM: compound 100 nM
Method in brief: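 BTK levels were measured by immunoblotting of equal-protein RIPA lysates, normalized to GAPDH or β-actin, with chemiluminescent or infrared detection. Lysates came from TMD-8 cells exposed to compound for 24 h at final concentrations of 0.1, 1, 10 μM or 0.0001–0.1 μM, against a DMSO control.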

T1 sequence (Q06187 whole entry): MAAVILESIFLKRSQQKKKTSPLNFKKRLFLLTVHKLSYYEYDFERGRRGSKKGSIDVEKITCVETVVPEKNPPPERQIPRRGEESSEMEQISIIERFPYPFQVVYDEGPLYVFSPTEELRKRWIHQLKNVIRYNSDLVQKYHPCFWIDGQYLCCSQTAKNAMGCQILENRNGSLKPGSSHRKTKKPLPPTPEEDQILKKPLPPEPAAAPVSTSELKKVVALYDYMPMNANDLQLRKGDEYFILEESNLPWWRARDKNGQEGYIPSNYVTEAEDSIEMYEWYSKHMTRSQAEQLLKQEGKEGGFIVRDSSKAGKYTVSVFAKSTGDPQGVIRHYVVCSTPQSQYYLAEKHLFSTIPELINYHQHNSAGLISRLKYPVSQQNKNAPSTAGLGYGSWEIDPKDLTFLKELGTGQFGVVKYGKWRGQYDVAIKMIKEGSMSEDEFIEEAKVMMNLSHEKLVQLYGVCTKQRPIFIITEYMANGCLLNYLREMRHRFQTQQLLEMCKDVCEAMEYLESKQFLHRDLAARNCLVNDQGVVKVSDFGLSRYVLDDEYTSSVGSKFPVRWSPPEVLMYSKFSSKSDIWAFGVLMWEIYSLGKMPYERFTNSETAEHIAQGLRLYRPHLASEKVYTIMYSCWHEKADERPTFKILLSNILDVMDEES

SMILES | BTK degradation (%) 1 nM | BTK degradation (%) 10 nM | BTK degradation (%) 100 nM
Cc1cc(-c2ccnc(Nc3ccc(C4CCN(CC5CCN(c6ccc(OC7CCC(=O)NC7=O)cc6)CC5)CC4)cc3)n2)ccc1CNC(=O)c1cnn(C(C)C)c1 (stereo not drawn) [Example 49, N-(4-(2-((4-(1-((1-(4-((2,6-dioxopiperidin-3-yl)oxy)phenyl)piperidin-4-yl)methyl)piperidin-4-yl)phenyl)amino)pyrimidin-4-yl)-2-methylbenzyl)-1-isopropyl-1H-pyrazole-4-carboxamide] | 23.0% | 87.0% | 90.5%
Cc1cc(-c2ccnc(Nc3ccc(N4CCN(CC5CCN(c6cccc(NC7CCC(=O)NC7=O)c6)CC5)CC4)cc3)n2)ccc1CNC(=O)c1cnn(C(C)C)c1 (stereo not drawn) [Example 57, N-(4-(2-((4-(4-((1-(3-((2,6-dioxopiperidin-3-yl)amino)phenyl)piperidin-4-yl)methyl)piperazin-1-yl)phenyl)amino)pyrimidin-4-yl)-2-methylbenzyl)-1-isopropyl-1H-pyrazole-4-carboxamide] | 54.0% | 95.0% | 99.5%
Cc1cc(-c2ccnc(Nc3ccc(N4CCN(CC5CCN(c6ccc(NC7CCC(=O)NC7=O)cn6)CC5)CC4)cc3)n2)ccc1CNC(=O)c1cnn(C(C)C)c1 (stereo not drawn) [Example 58, N-(4-(2-((4-(4-((1-(5-((2,6-dioxopiperidin-3-yl)amino)pyridin-2-yl)piperidin-4-yl)methyl)piperazin-1-yl)phenyl)amino)pyrimidin-4-yl)-2-methylbenzyl)-1-isopropyl-1H-pyrazole-4-carboxamide] | 62.0% | 97.5% | 99.0%
Cc1cc(-c2ccnc(Nc3ccc(N4CCN(CC5CCN(c6cccc(NC7CCC(=O)NC7=O)c6)CC5)CC4)cc3)n2)ccc1CNC(=O)c1cnn(C(C)(C)C)c1 (stereo not drawn) [Example 59, 1-(tert-butyl)-N-(4-(2-((4-(4-((1-(3-((2,6-dioxopiperidin-3-yl)amino)phenyl)piperidin-4-yl)methyl)piperazin-1-yl)phenyl)amino)pyrimidin-4-yl)-2-methylbenzyl)-1H-pyrazole-4-carboxamide] | 72.0% | 97.0% | 99.0%
Cc1cc(-c2ccnc(Nc3ccc(N4CCN(CC5CCN(c6ccc(NC7CCC(=O)NC7=O)cn6)CC5)CC4)cc3)n2)ccc1CNC(=O)c1cnn(C(C)(C)C)c1 (stereo not drawn) [Example 60, 1-(tert-butyl)-N-(4-(2-((4-(4-((1-(5-((2,6-dioxopiperidin-3-yl)amino)pyridin-2-yl)piperidin-4-yl)methyl)piperazin-1-yl)phenyl)amino)pyrimidin-4-yl)-2-methylbenzyl)-1H-pyrazole-4-carboxamide] | 58.0% | 96.5% | 99.5%
Cc1cc(-c2ccnc(Nc3ccc(N4CCN(CC5CCN(c6cccc(NC7CCC(=O)NC7=O)c6)CC5)CC4)cc3)n2)ccc1CNC(=O)c1cn(C(C)(C)C)nn1 (stereo not drawn) [Example 61, 1-(tert-butyl)-N-(4-(2-((4-(4-((1-(3-((2,6-dioxopiperidin-3-yl)amino)phenyl)piperidin-4-yl)methyl)piperazin-1-yl)phenyl)amino)pyrimidin-4-yl)-2-methylbenzyl)-1H-1,2,3-triazole-4-carboxamide] | 66.5% | 95.5% | 99.0%
Cc1cc(-c2ccnc(Nc3ccc(N4CCN(CC5CCN(c6ccc(NC7CCC(=O)NC7=O)cn6)CC5)CC4)cc3)n2)ccc1CNC(=O)c1cn(C(C)(C)C)nn1 (stereo not drawn) [Example 62] | 57.0% | 97.5% | 100.0%
Cc1cc(-c2ccnc(Nc3ccc(CN4CCN(CC5CCN(c6cccc(OC7CCC(=O)NC7=O)c6)CC5)CC4)cc3)n2)ccc1CNC(=O)N1CC(OC(C)C)C1 (stereo not drawn) [Example 63, N-(4-(2-((4-((4-((1-(3-((2,6-dioxopiperidin-3-yl)oxy)phenyl)piperidin-4-yl)methyl)piperazin-1-yl)methyl)phenyl)amino)pyrimidin-4-yl)-2-methylbenzyl)-3-isopropoxyazetidine-1-carboxamide] | 29.0% | 83.0% | 97.5%
Cc1cc(-c2ccnc(Nc3ccc(N4CCN(CC5CCN(c6cccc(N7CCC(=O)NC7=O)c6)CC5)CC4)cc3)n2)ccc1CNC(=O)N1CC(OC(C)C)C1 [Example 65, N-(4-(2-((4-(4-((1-(3-(2,4-dioxotetrahydropyrimidin-1 (2H)-yl)phenyl)piperidin-4-yl)methyl)piperazin-1-yl)phenyl)amino)pyrimidin-4-yl)-2-methylbenzyl)-3-isopropoxyazetidine-1-carboxamide] | 32.5% | 92.0% | 99.0%
Cc1cc(-c2ccnc(Nc3ccc(N4CCN(CC5CCN(c6ccc(N7CCC(=O)NC7=O)cc6)CC5)CC4)cc3)n2)ccc1CNC(=O)N1CC(OC(C)C)C1 [Example 66, N-(4-(2-((4-(4-((1-(4-(2,4-dioxotetrahydropyrimidin-1 (2H)-yl)phenyl)piperidin-4-yl)methyl)piperazin-1-yl)phenyl)amino)pyrimidin-4-yl)-2-methylbenzyl)-3-isopropoxyazetidine-1-carboxamide] | 28.0% | 91.5% | 98.5%

Next, values leading:

BTK degradation (%) 1 nM | BTK degradation (%) 10 nM | BTK degradation (%) 100 nM | SMILES
19.7% | 82.0% | 99.3% | Cc1cc(-c2ccnc(Nc3ccc(N4CCN(CC5CCN(c6ccc(OC7CCC(=O)NC7=O)cn6)CC5)CC4)cc3)n2)ccc1CNC(=O)N1CC(OC(C)C)C1 (stereo not drawn) [Example 50, N-(4-(2-((4-(4-((1-(5-((2,6-dioxopiperidin-3-yl)oxy)pyridin-2-yl)piperidin-4-yl)methyl)piperazin-1-yl)phenyl)amino)pyrimidin-4-yl)-2-methylbenzyl)-3-isopropoxyazetidine-1-carboxamide]
24.0% | 86.7% | 99.3% | Cc1cc(-c2ccnc(Nc3ccc(C4CCN(CC5CCN(c6ccc(OC7CCC(=O)NC7=O)cn6)CC5)CC4)cc3)n2)ccc1CNC(=O)N1CC(OC(C)C)C1 (stereo not drawn) [Example 51, N-(4-(2-((4-(1-((1-(5-((2,6-dioxopiperidin-3-yl)oxy)pyridin-2-yl)piperidin-4-yl)methyl)piperidin-4-yl)phenyl)amino)pyrimidin-4-yl)-2-methylbenzyl)-3-isopropoxyazetidine-1-carboxamide]
24.0% | 92.0% | 99.3% | Cc1cc(-c2ccnc(Nc3ccc(N4CCN(CC5CCN(c6ccc(NC7CCC(=O)NC7=O)cn6)CC5)CC4)cc3)n2)ccc1CNC(=O)N1CC(OC(C)C)C1 (stereo not drawn) [Example 52, N-(4-(2-((4-(4-((1-(5-((2,6-dioxopiperidin-3-yl)amino)pyridin-2-yl)piperidin-4-yl)methyl)piperazin-1-yl)phenyl)amino)pyrimidin-4-yl)-2-methylbenzyl)-3-isopropoxyazetidine-1-carboxamide]
13.3% | 86.7% | 99.3% | Cc1cc(-c2ccnc(Nc3ccc(C4CCN(CC5CCN(c6ccc(NC7CCC(=O)NC7=O)cn6)CC5)CC4)cc3)n2)ccc1CNC(=O)N1CC(OC(C)C)C1 (stereo not drawn) [Example 53, N-(4-(2-((4-(1-((1-(5-((2,6-dioxopiperidin-3-yl)amino)pyridin-2-yl)piperidin-4-yl)methyl)piperidin-4-yl)phenyl)amino)pyrimidin-4-yl)-2-methylbenzyl)-3-isopropoxyazetidine-1-carboxamide]
38.7% | 95.0% | 99.7% | Cc1cc(-c2ccnc(Nc3ccc(N4CCN(CC5CCN(c6cccc(NC7CCC(=O)NC7=O)c6)CC5)CC4)cc3)n2)ccc1CNC(=O)N1CC(OC(C)C)C1 (stereo not drawn) [Example 54, N-(4-(2-((4-(4-((1-(3-((2,6-dioxopiperidin-3-yl)amino)phenyl)piperidin-4-yl)methyl)piperazin-1-yl)phenyl)amino)pyrimidin-4-yl)-2-methylbenzyl)-3-isopropoxyazetidine-1-carboxamide]
37.7% | 94.7% | 99.7% | Cc1cc(-c2ccnc(Nc3ccc(N4CCN(CC5CCN(c6ccc(NC7CCC(=O)NC7=O)cc6)CC5)CC4)cc3)n2)ccc1CNC(=O)N1CC(OC(C)C)C1 (stereo not drawn) [Example 55, N-(4-(2-((4-(4-((1-(4-((2,6-dioxopiperidin-3-yl)amino)phenyl)piperidin-4-yl)methyl)piperazin-1-yl)phenyl)amino)pyrimidin-4-yl)-2-methylbenzyl)-3-isopropoxyazetidine-1-carboxamide]
13.7% | 91.3% | 99.7% | Cc1cc(-c2ccnc(Nc3ccc(C4CCN(CC5CCN(c6ccc(NC7CCC(=O)NC7=O)cc6)CC5)CC4)cc3)n2)ccc1CNC(=O)N1CC(OC(C)C)C1 (stereo not drawn) [Example 56, N-(4-(2-((4-(1-((1-(4-((2,6-dioxopiperidin-3-yl)amino)phenyl)piperidin-4-yl)methyl)piperidin-4-yl)phenyl)amino)pyrimidin-4-yl)-2-methylbenzyl)-3-isopropoxyazetidine-1-carboxamide]
43.0% | 92.5% | 98.5% | Cc1cc(-c2ccnc(Nc3ccc(CN4CCN(CC5CCN(c6cccc(NC7CCC(=O)NC7=O)c6)CC5)CC4)cc3)n2)ccc1CNC(=O)N1CC(OC(C)C)C1 (stereo not drawn) [Example 64, N-(4-(2-((4-((4-((1-(3-((2,6-dioxopiperidin-3-yl)amino)phenyl)piperidin-4-yl)methyl)piperazin-1-yl)methyl)phenyl)amino)pyrimidin-4-yl)-2-methylbenzyl)-3-isopropoxyazetidine-1-carboxamide]
